Experiments:
[1] = Pharmacokinetics of bendamustine dosed to rats, composition with SBECD and cetylpyridinium chloride (Example 11); assay type: in vivo; conditions: female, Sprague-Dawley, rat, plasma, iv, i.v. 20 mg/kg, read-out: Concentration of bendamustine in rat plasma, Mean (SEM)
Method: Control: 6 mg/mL bendamustine hydrochloride, 10.2 mg/mL of mannitol in 0.9% NaCl; dose of 20 mg/kg
Inventive Composition: 5 mg/g bendamustine hydrochloride, 40% w/w sodium sulfobutyl ether β-cyclodextrin, 0.5% cetylpyridinium chloride, 8.5 mg/g mannitol in water (produced following the procedure of Example 8); dose of 20 mg/kg.
Female Sprague-Dawley rats (250-350 g). The animals were kept three per cage with an air filter cover under light (12 h light/dark cycle, light on at 06 h00) and controlled temperature 22° C.+/−1° C. All manipulations with the animals were performed under a sterilized laminar hood. The animals had ad libitum access to Purina mouse chow and water. The animals were fasted overnight and anesthetized, before dosing. Dosing and Sampling: The inventive bendamustine composition and control were administered intravenously to rats in tail vein. After time intervals of 5, 15, 30, 45 min, 1, 1.5, 2 and 3 hrs post-injection, blood samples were collected. The rats were anesthetized by general inhalation of isoflurane. The blood samples were collected from the jugular vein with heparinized tube and kept on ice. Blood was immediately centrifuged, and plasma was separated. The plasma samples were immediately extracted. Sample Extraction and Analysis: The plasma samples 0.100 mL were transferred to plastic tubes. The samples were extracted with 0.400 mL of 100 mM HCl in acetonitrile while being shaken vigorously for 30 seconds. The samples were centrifuged at 10000 RPM for 5 minutes. The supernatant was separated. The samples were frozen in dry ice and kept at −80° C. until HPLC analysis. 20 microliter aliquots were injected into the HPLC for analysis. The HPLC Conditions: C18 reversed phase column 50×4.6 mm, Symmetry/Shield 3.5 micrometer Column temperature 30° C. Flow rate 1.5 mL/min Injection volume 20 microliters Fluorescence detection at wavelengths: excitation 327 nm, emission 420 nm Mobile phase: Buffer A: 5% acetonitrile 0.1% TFA Buffer B: 90% acetonitrile 0.1% TFA Run time: 10 min The improved pharmacokinetic profiles of bendamustine for tested composition versus the control is shown in Table 1 below.

[2] = tested on: Human breast carcinoma MDA-MB 231 s.c. solid tumors; assay: Human breast carcinoma MDA-MB 231 s.c. solid tumors in nude mice (Example 28); assay type: in vivo, balb/c nu/nu mice; conditions: for Tumor weight after treatment, Average (SEM): 30 mg/kg days 1, 2, 9, 10
Method: balb/c mice aged 5 to 6 weeks were purchased from Charles River Canada Inc. The animals were kept 5 per cage with an air filter cover under light (12 light/dark cycle, light on at 6 H00) and temperature (22° C.±1° C.)-controlled environment. All manipulations of animals were performed under a sterilized laminar hood. The animals had ad libitum access to Purina mouse chow (Pro Lab PMH 4018, Trademark of Agway, Syracuse, N.Y.) and water. These animal studies were conducted according to the “Guidelines for Care and Use of Experimental Animals”. Tumor Cell Culture: Human breast cancer cells MDA-MB 231 were cultured in the appropriated culture medium. The cells were harvested in their logarithmic growth phase for the preparation of tumor implantation. Tumor Implantation: Human tumor or myeloma cells (2.5 to 5.0×10^6 cells) were implanted subcutaneously in 0.200 mL of medium containing 30% Matrigel on the two flanks of balb/c nu/nu mice through a 1 to 2 cm long 20-gauge needle. Treatments: 2 to 3 weeks after tumor cell implantation, animals that developed s.c. solid tumors were selected and divided into several homogeneous groups (n=5 animals per group or dose) with respect to tumor size (0.5 to 0.8 cm in diameter). The treatments were performed next day. The animals were dosed with the following dosing solutions. Control: (0.9%, NaCl) Compositions:
Subcutaneous solid tumor measurements were performed on the day of first injection and at 3- to 4-day intervals thereafter. The two largest perpendicular diameters of each tumor were measured with calipers and tumor sizes were estimated using the formula: TV=L×W/2 where TV: tumor volume; L: length; W: width. The body weights of animals were also noted.
The experiment was performed as described in example 27, using the following compositions for treatment:
non-formulated bendamustine, (30 mg/kg)
Bendamustine (30 mg/kg) in 40% SBECD (formulated BM)
The treatment was performed on days 1, 2, 9, and 10.

Question: With `Cn1c(CCCC(=O)O)nc2cc(N(CCCl)CCCl)ccc21` [BM, 4-[5-[bis(2-chloroethyl)amino]-1-methylbenzimidazol-2-yl]butanoic acid] as the compound, how does the concentration at 0.08 h ([1]; 0.08 h post injection) read?
Answer: The concentration at 0.08 h was 12300 ng/mL.

Question: And the concentration at 0.25 h ([1]; 0.25 h post injection)?
Answer: The concentration at 0.25 h was 7620 ng/mL.

Question: What about the concentration at 0.5 h ([1]; 0.5 h post injection) of the same compound?
Answer: The concentration at 0.5 h was 3050 ng/mL.

Question: What about the concentration at 0.75 h ([1]; 0.75 h post injection) of the same compound?
Answer: Its concentration at 0.75 h is 966 ng/mL.

Question: And the concentration at 1 h ([1]; 1 h post injection)?
Answer: Its concentration at 1 h is 414 ng/mL.

Question: What about the concentration at 1.5 h ([1]; 1.5 h post injection) of the same compound?
Answer: Its concentration at 1.5 h is 133 ng/mL.

Question: And the concentration at 2 h ([1]; 2 h post injection)?
Answer: The concentration at 2 h was 54 ng/mL.

Question: What about the concentration at 3 h ([1]; 3 h post injection) of the same compound?
Answer: Its concentration at 3 h is 9 ng/mL.

Question: And the “Tumor weight after treatment, Average (SEM)” value (from here on “Tumor weight … (SEM)”) ([2]; day 0)?
Answer: The value was 0.203 (0.028) g.

Question: And the “Tumor weight … (SEM)” value ([2]; day 2)?
Answer: Its value is 0.238 (0.023) g.

Question: What about the “Tumor weight … (SEM)” value ([2]; day 5) of the same compound?
Answer: Its value is 0.267 (0.022) g.

Question: What about the “Tumor weight … (SEM)” value ([2]; day 7) of the same compound?
Answer: The value was 0.313 (0.028) g.

Question: What about the “Tumor weight … (SEM)” value ([2]; day 9) of the same compound?
Answer: The value was 0.388 (0.045) g.

Question: And the “Tumor weight … (SEM)” value ([2]; day 12)?
Answer: The value was 0.497 (0.060) g.

Question: And the “Tumor weight … (SEM)” value ([2]; day 14)?
Answer: Its value is 0.550 (0.075) g.

Question: What about the “Tumor weight … (SEM)” value ([2]; day 16) of the same compound?
Answer: Its value is 0.594 (0.084) g.

Question: What about the “Tumor weight … (SEM)” value ([2]; day 19) of the same compound?
Answer: Its value is 0.684 (0.098) g.

Question: And the “Real Tumor weight on day 19 in autopsy” value ([2]; 30 mg/kg, Day 1, 2, 9, 10)?
Answer: Its value is 0.275 ± 0.052 g.

Question: What about the “Tumor weight on day 19 estimated from measurements of the tumor size” value ([2]; 30 mg/kg, Day 1, 2, 9, 10) of the same compound?
Answer: The value was 0.684 ± 0.10 g.

Source: patent publication US8703964B2, “Bendamustine cyclopolysaccharide compositions” (Supratek Pharma Inc., priority 2009, dated 2014)
